Square brackets hold non-standard residues; d marks the D form. Peptide text beside a SMILES is read from it. ξ: configuration not given here. Ile(3ξ) = CCC(C)[C@H](N)C(=O)O

This test has as its target T1, VIP peptides (Rattus norvegicus, UniProt P01283).
T1 sequence (P01283 whole entry): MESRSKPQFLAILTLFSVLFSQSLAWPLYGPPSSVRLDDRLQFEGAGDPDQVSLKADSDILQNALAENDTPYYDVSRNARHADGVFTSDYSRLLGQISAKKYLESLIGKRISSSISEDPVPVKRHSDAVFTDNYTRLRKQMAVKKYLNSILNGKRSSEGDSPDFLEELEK
One may read the Ki as the equilibrium dissociation constant of an inhibitor or competing ligand from its target. A high value points to lower affinity. Turning to `CC[C@H](C)[C@H](NC(=O)[C@H](CO)NC(=O)[C@H](CC(N)=O)NC(=O)[C@H](CC(C)C)NC(=O)[C@H](Cc1ccc(O)cc1)NC(=O)[C@H](CCCCN)NC(=O)[C@H](CCCCN)NC(=O)[C@@H](NC(=O)[C@H](C)NC(=O)[C@H](CCSC)NC(=O)[C@H](CCC(N)=O)NC(=O)[C@H](CCCCN)NC(=O)[C@H](CCCN=C(N)N)NC(=O)[C@H](CC(C)C)NC(=O)[C@H](CCCN=C(N)N)NC(=O)[C@@H](NC(=O)[C@H](Cc1ccc(O)cc1)NC(=O)[C@H](CC(N)=O)NC(=O)[C@H](CC(=O)O)NC(=O)[C@@H](NC(=O)[C@H](Cc1ccccc1)NC(=O)[C@@H](NC(=O)[C@H](C)NC(=O)[C@H](CC(=O)O)NC(=O)[C@@H](N)CO)C(C)C)[C@@H](C)O)[C@@H](C)O)C(C)C)C(=O)N[C@@H](CC(C)C)C(=O)N[C@@H](CC(N)=O)C(N)=O` [VIP(2-28)] (H-SDAVFTDNYTRLRKQMAVKKYLNSILN-NH2), the Ki turned out to be 200 nM. This counts as sub-micromolar. With `CCC(C)[C@H](NC(=O)CN)C(=O)N[C@@H](Cc1ccccc1)C(=O)N[C@H](C(=O)N[C@@H](CC(=O)O)C(=O)N[C@@H](CO)C(=O)N[C@@H](Cc1ccc(O)cc1)C(=O)N[C@@H](CO)C(=O)N[C@@H](CCCN=C(N)N)C(=O)N[C@@H](Cc1ccc(O)cc1)C(=O)N[C@@H](CCCN=C(N)N)C(=O)N[C@@H](CCCCN)C(=O)N[C@@H](CCC(N)=O)C(=O)N[C@@H](CCSC)C(=O)N[C@@H](C)C(=O)N[C@H](C(=O)N[C@@H](CCCCN)C(=O)N[C@@H](CCCCN)C(=O)N[C@@H](Cc1ccc(O)cc1)C(=O)N[C@@H](CC(C)C)C(=O)N[C@@H](C)C(=O)N[C@@H](C)C(=O)N[C@H](C(=O)N[C@@H](CC(C)C)C(N)=O)C(C)C)C(C)C)[C@@H](C)O` (some centres undefined) [PACAP(4-27)] (H-G[Ile(3ξ)]FTDSYSRYRKQMAVKKYLAAVL-NH2), the affinity corresponds to a Ki of 800 nM. Regarding `CC[C@H](C)[C@H](NC(=O)CNC(=O)[C@H](CC(=O)O)NC(=O)[C@H](CO)NC(=O)[C@@H](N)Cc1cnc[nH]1)C(=O)N[C@@H](Cc1ccccc1)C(=O)N[C@H](C(=O)N[C@@H](CC(=O)O)C(=O)N[C@@H](CO)C(=O)N[C@@H](Cc1ccc(O)cc1)C(=O)N[C@@H](CO)C(=O)N[C@@H](CCCNC(=N)N)C(=O)N[C@@H](Cc1ccc(O)cc1)C(=O)N[C@@H](CCCNC(=N)N)C(=O)N[C@@H](CCCCN)C(=O)N[C@@H](CCC(N)=O)C(=O)N[C@@H](CCSC)C(=O)N[C@@H](C)C(=O)N[C@H](C(=O)N[C@@H](CCCCN)C(=O)N[C@@H](CCCCN)C(=O)N[C@@H](Cc1ccc(O)cc1)C(=O)N[C@@H](CC(C)C)C(=O)N[C@@H](C)C(=O)N[C@@H](C)C(=O)N[C@H](C(=O)N[C@@H](CC(C)C)C(=O)NCC(=O)N[C@@H](CCCCN)C(=O)N[C@@H](CCCNC(=N)N)C(=O)N[C@@H](Cc1ccc(O)cc1)C(=O)N[C@@H](CCCCN)C(=O)N[C@@H](CCC(N)=O)C(=O)N[C@@H](CCCNC(=N)N)C(=O)N[C@H](C(=O)N[C@@H](CCCCN)C(=O)N[C@@H](CC(N)=O)C(=O)N[C@@H](CCCCN)C(N)=O)C(C)C)C(C)C)C(C)C)[C@@H](C)O` [PACAP], the affinity, expressed as Ki, was 2 nM. In the case of `CCC(C)[C@H](NC(=O)CNC(=O)[C@H](CC(=O)O)NC(=O)[C@@H](N)CO)C(=O)N[C@@H](Cc1ccccc1)C(=O)N[C@H](C(=O)N[C@@H](CC(=O)O)C(=O)N[C@@H](CO)C(=O)N[C@@H](Cc1ccc(O)cc1)C(=O)N[C@@H](CO)C(=O)N[C@@H](CCCN=C(N)N)C(=O)N[C@@H](Cc1ccc(O)cc1)C(=O)N[C@@H](CCCN=C(N)N)C(=O)N[C@@H](CCCCN)C(=O)N[C@@H](CCC(N)=O)C(=O)N[C@@H](CCSC)C(=O)N[C@@H](C)C(=O)N[C@H](C(=O)N[C@@H](CCCCN)C(=O)N[C@@H](CCCCN)C(=O)N[C@@H](Cc1ccc(O)cc1)C(=O)N[C@@H](CC(C)C)C(=O)N[C@@H](C)C(=O)N[C@@H](C)C(=O)N[C@H](C(=O)N[C@@H](CC(C)C)C(=O)NCC(=O)N[C@@H](CCCCN)C(=O)N[C@@H](CCCN=C(N)N)C(=O)N[C@@H](Cc1ccc(O)cc1)C(=O)N[C@@H](CCCCN)C(=O)N[C@@H](CCC(N)=O)C(=O)N[C@@H](CCCN=C(N)N)C(=O)N[C@H](C(=O)N[C@@H](CCCCN)C(=O)N[C@@H](CC(N)=O)C(=O)N[C@@H](CCCCN)C(N)=O)C(C)C)C(C)C)C(C)C)[C@@H](C)O` (some centres undefined) [PACAP(2-38)] (H-SDG[Ile(3ξ)]FTDSYSRYRKQMAVKKYLAAVLGKRYKQRVKNK-NH2) it was 80 nM; in that of `CCC(C)[C@H](NC(=O)CNC(=O)[C@@H](N)CC(=O)O)C(=O)N[C@@H](Cc1ccccc1)C(=O)N[C@H](C(=O)N[C@@H](CC(=O)O)C(=O)N[C@@H](CO)C(=O)N[C@@H](Cc1ccc(O)cc1)C(=O)N[C@@H](CO)C(=O)N[C@@H](CCCN=C(N)N)C(=O)N[C@@H](Cc1ccc(O)cc1)C(=O)N[C@@H](CCCN=C(N)N)C(=O)N[C@@H](CCCCN)C(=O)N[C@@H](CCC(N)=O)C(=O)N[C@@H](CCSC)C(=O)N[C@@H](C)C(=O)N[C@H](C(=O)N[C@@H](CCCCN)C(=O)N[C@@H](CCCCN)C(=O)N[C@@H](Cc1ccc(O)cc1)C(=O)N[C@@H](CC(C)C)C(=O)N[C@@H](C)C(=O)N[C@@H](C)C(=O)N[C@H](C(=O)N[C@@H](CC(C)C)C(=O)NCC(=O)N[C@@H](CCCCN)C(=O)N[C@@H](CCCN=C(N)N)C(=O)N[C@@H](Cc1ccc(O)cc1)C(=O)N[C@@H](CCCCN)C(=O)N[C@@H](CCC(N)=O)C(=O)N[C@@H](CCCN=C(N)N)C(=O)N[C@H](C(=O)N[C@@H](CCCCN)C(=O)N[C@@H](CC(N)=O)C(=O)N[C@@H](CCCCN)C(N)=O)C(C)C)C(C)C)C(C)C)[C@@H](C)O` (some centres undefined) [PACAP(3-38)] (H-DG[Ile(3ξ)]FTDSYSRYRKQMAVKKYLAAVLGKRYKQRVKNK-NH2), 800 nM; in that of `CC[C@H](C)[C@H](NC(=O)CNC(=O)[C@H](CCC(=O)O)NC(=O)[C@H](CO)NC(=O)[C@@H](N)Cc1cnc[nH]1)C(=O)N[C@@H](Cc1ccccc1)C(=O)N[C@H](C(=O)N[C@@H](CC(=O)O)C(=O)N[C@@H](CO)C(=O)N[C@@H](Cc1ccc(O)cc1)C(=O)N[C@@H](CO)C(=O)N[C@@H](CCCNC(=N)N)C(=O)N[C@@H](Cc1ccc(O)cc1)C(=O)N[C@@H](CCCNC(=N)N)C(=O)N[C@@H](CCCCN)C(=O)N[C@@H](CCC(N)=O)C(=O)N[C@@H](CCSC)C(=O)N[C@@H](C)C(=O)N[C@H](C(=O)N[C@@H](CCCCN)C(=O)N[C@@H](CCCCN)C(=O)N[C@@H](Cc1ccc(O)cc1)C(=O)N[C@@H](CC(C)C)C(=O)N[C@@H](C)C(=O)N[C@@H](C)C(=O)N[C@H](C(=O)N[C@@H](CC(C)C)C(N)=O)C(C)C)C(C)C)[C@@H](C)O` [PACAP(1-27)], 2 nM. In the case of `CC[C@H](C)[C@H](NC(=O)[C@H](CO)NC(=O)[C@H](CC(N)=O)NC(=O)[C@H](CC(C)C)NC(=O)[C@H](Cc1ccc(O)cc1)NC(=O)[C@H](CCCCN)NC(=O)[C@H](CCCCN)NC(=O)[C@@H](NC(=O)[C@H](C)NC(=O)[C@H](CCSC)NC(=O)[C@H](CCC(N)=O)NC(=O)[C@H](CCCCN)NC(=O)[C@H](CCCN=C(N)N)NC(=O)[C@H](CC(C)C)NC(=O)[C@H](CCCN=C(N)N)NC(=O)[C@@H](NC(=O)[C@H](Cc1ccc(O)cc1)NC(=O)[C@H](CC(N)=O)NC(=O)[C@H](CC(=O)O)NC(=O)[C@@H](NC(=O)[C@H](Cc1ccccc1)NC(=O)[C@@H](NC(=O)[C@H](C)NC(=O)[C@H](CC(=O)O)NC(=O)[C@H](CO)NC(=O)[C@@H](N)Cc1ccccc1)C(C)C)[C@@H](C)O)[C@@H](C)O)C(C)C)C(=O)N[C@@H](CC(C)C)C(=O)N[C@@H](CC(N)=O)C(N)=O` [[Phe1]VIP] (H-FSDAVFTDNYTRLRKQMAVKKYLNSILN-NH2) it was 30 nM; in that of `CC[C@H](C)[C@H](NC(=O)[C@H](C)NC(=O)[C@H](CC(=O)O)NC(=O)[C@H](CO)NC(=O)[C@@H](N)Cc1cnc[nH]1)C(=O)N[C@@H](Cc1ccccc1)C(=O)N[C@H](C(=O)N[C@@H](CCC(N)=O)C(=O)N[C@@H](CCC(N)=O)C(=O)N[C@@H](Cc1ccc(O)cc1)C(=O)N[C@@H](CO)C(=O)N[C@@H](CCCCN)C(=O)N[C@@H](CC(C)C)C(=O)N[C@@H](CC(C)C)C(=O)N[C@@H](C)C(=O)N[C@@H](CCCCN)C(=O)N[C@@H](CC(C)C)C(=O)N[C@@H](C)C(=O)N[C@@H](CC(C)C)C(=O)N[C@@H](CCC(N)=O)C(=O)N[C@@H](CCCCN)C(=O)N[C@@H](Cc1ccc(O)cc1)C(=O)N[C@@H](CC(C)C)C(=O)N[C@@H](C)C(=O)N[C@@H](CO)C(=O)N[C@H](C(=O)N[C@@H](CC(C)C)C(=O)NCC(=O)N[C@@H](CO)C(=O)N[C@@H](CCCNC(=N)N)C(=O)N[C@H](C(=O)N[C@@H](CO)C(=O)N1CCC[C@H]1C(=O)N1CCC[C@H]1C(=O)N1CCC[C@H]1C(N)=O)[C@@H](C)O)[C@@H](C)CC)[C@@H](C)O` [CAS_89468-62-2] (H-HSDAIFTQQYSKLLAKLALQKYLASILGSRTSPPP-NH2), 30 nM. In the case of `CCC(C)[C@H](NC(=O)CN)C(=O)N[C@@H](Cc1ccccc1)C(=O)N[C@H](C(=O)N[C@@H](CC(=O)O)C(=O)N[C@@H](CO)C(=O)N[C@@H](Cc1ccc(O)cc1)C(=O)N[C@@H](CO)C(=O)N[C@@H](CCCN=C(N)N)C(=O)N[C@@H](Cc1ccc(O)cc1)C(=O)N[C@@H](CCCN=C(N)N)C(=O)N[C@@H](CCCCN)C(=O)N[C@@H](CCC(N)=O)C(=O)N[C@@H](CCSC)C(=O)N[C@@H](C)C(=O)N[C@H](C(=O)N[C@@H](CCCCN)C(=O)N[C@@H](CCCCN)C(=O)N[C@@H](Cc1ccc(O)cc1)C(=O)N[C@@H](CC(C)C)C(=O)N[C@@H](C)C(=O)N[C@@H](C)C(=O)N[C@H](C(=O)N[C@@H](CC(C)C)C(=O)NCC(=O)N[C@@H](CCCCN)C(=O)N[C@@H](CCCN=C(N)N)C(=O)N[C@@H](Cc1ccc(O)cc1)C(=O)N[C@@H](CCCCN)C(=O)N[C@@H](CCC(N)=O)C(=O)N[C@@H](CCCN=C(N)N)C(=O)N[C@H](C(=O)N[C@@H](CCCCN)C(=O)N[C@@H](CC(N)=O)C(=O)N[C@@H](CCCCN)C(N)=O)C(C)C)C(C)C)C(C)C)[C@@H](C)O` (some centres undefined) [PACAP(4-38)] (H-G[Ile(3ξ)]FTDSYSRYRKQMAVKKYLAAVLGKRYKQRVKNK-NH2) it was 800 nM.
